This note sets out measurements from patent US20170145000A1, “CANAGLIFLOZIN MONOHYDRATE AND ITS CRYSTALLINE FORMS, PREPARATION METHODS AND USES THEREOF” (Hangzhou Pushai Pharmaceutical Technology Co., Ltd., priority 2014, published 2017).

Assay type in all cases: physicochemical
Data set [1] is described as follows: repetition of prior art forms and test of their properties (stability in water, phase stability). The settings on record: prior art processes repeated by the inventors; competitive stability test in water. An excerpt: The above properties may lead to problems in their pharmaceutical formulations, including variations in active substance content, poor reproducibility, impurities increasing during storage, efficacy decreasing, and so on. Moreover, the known canagliflozin is amorphous.

Data set [2] in a line: competitive stability test in water at room temperature with Monohydrate Form HII (XRPD). The settings on record: equal 250 mg samples of Form HII, known canagliflozin, Form A and Form hH1 mixed with 3 mL water, stirred 7 days. The protocol: The competitive stability test among canagliflozin Monohydrate Form HII of the present invention, the known Canagliflozin, canagliflozin hemihydrate Form hH1 and canagliflozin Form A was performed in water at room temperature.
Conditions of the competitive stability test were as follows: take equal quantity (250 mg) samples of canagliflozin Monohydrate Form HII of the present invention, canagliflozin prepared in the preparation example 1 in the present invention, canagliflozin Form A prepared in the preparation example 2 in the present invention and canagliflozin hemihydrate Form hH1 prepared in the preparation 3 in the present invention, respectively, and mix the samples with 3 mL of water to form a suspension. The suspension was stirred for 7 days at room temperature and then XRPD characterization analysis was performed.

Data set [3] in a line: competitive stability test in water at room temperature with Monohydrate Form HI (XRPD). To be noted: equal 250 mg samples of Form HI, known canagliflozin, Form A and Form hH1 mixed with 5 mL water, stirred 7 days. The protocol:
The competitive stability test of canagliflozin Monohydrate Form HI of the present invention, the known canagliflozin, canagliflozin hemihydrate Form hH1 and canagliflozin Form A was performed in water at room temperature.
Conditions of the competitive stability test were as follows: take equal quantity (250 mg) samples of canagliflozin Monohydrate Form HI of the present invention, canagliflozin prepared in the preparation example 1, canagliflozin Form A prepared in the preparation example 2 and canagliflozin hemihydrate Form hH1 prepared in the preparation example 3 respectively, mix the samples with 5 mL of water to form a suspension. The suspension was stirred for 7 days at room temperature and then XRPD characterization analysis was performed.

Data set [4] can be described thus: storage in desiccator at room temperature and controlled relative humidity. To be noted: room temperature.

Turning to `Cc1ccc([C@@H]2O[C@H](CO)[C@@H](O)[C@H](O)[C@H]2O)cc1Cc1ccc(-c2ccc(F)cc2)s1` [Cangaliflozin Form B], the “stability in water / phase stability of repeated prior art forms” value (shortened to “stability in water / phase stability”) in data set [1] is listed as “poor phase stability”.

Consider `Cc1ccc([C@@H]2O[C@H](CO)[C@@H](O)[C@H](O)[C@H]2O)cc1Cc1ccc(-c2ccc(F)cc2)s1` [canagliflozin Form A], for which the “crystalline form after competitive stability test in water” value (“crystalline form … in water” for short) in data set [2] was “transformed to canagliflozin Monohydrate Form HII”; in data set [3], “transformed to canagliflozin Monohydrate Form HI”. Also, the “stability in water / phase stability” value in data set [1] is reported as “not stable in water”.

Turning to `Cc1ccc([C@@H]2O[C@H](CO)[C@@H](O)[C@H](O)[C@H]2O)cc1Cc1ccc(-c2ccc(F)cc2)s1` [canagliflozin Monohydrate Form HI, canagliflozin monohydrate Form HI], the “crystalline form … in water” value in data set [3] was “maintained its original crystalline form”. Also, the “crystalline form after storage” value in data set [4] (desiccator, 10% to 90% RH, 4 months) is listed as “remained unchanged”.

Regarding `Cc1ccc([C@@H]2O[C@H](CO)[C@@H](O)[C@H](O)[C@H]2O)cc1Cc1ccc(-c2ccc(F)cc2)s1` [canagliflozin Monohydrate Form HII], in data set [2], the “crystalline form … in water” value was “maintained its original crystalline form”. Moreover, the “crystalline form after storage” value in data set [4] (desiccators, relative humidities from 57% to 75%, continued storage for 4 months) was “remained unchanged”.

For `Cc1ccc([C@@H]2O[C@H](CO)[C@@H](O)[C@H](O)[C@H]2O)cc1Cc1ccc(-c2ccc(F)cc2)s1.O` [canagliflozin hemihydrate Form hH1], the “crystalline form … in water” value in data set [2] is on record as “transformed to canagliflozin Monohydrate Form HII”; in data set [3] it was “transformed to canagliflozin Monohydrate Form HI”. Besides, the “stability in water / phase stability” value in data set [1] is “poor phase stability”.

Regarding `Cc1ccc([C@@H]2O[C@H](CO)[C@@H](O)[C@H](O)[C@H]2O)cc1Cc1ccc(-c2ccc(F)cc2)s1` [known canagliflozin, (1S)-1,5-anhydro-1-[3-[[5-(4-fluorophenyl)-2-thienyl]methyl]-4-methylphenyl]-D-glucitol], the “crystalline form … in water” value is listed as “transformed to canagliflozin Monohydrate Form HII” in data set [2] and “transformed to canagliflozin Monohydrate Form HI” in data set [3]. In addition, in data set [4] (desiccators, relative humidities from 57% to 75%, 1 day), the “crystalline form after storage” value is “transformed to canagliflozin Monohydrate Form HII”. Besides, in data set [1], the “stability in water / phase stability” value is recorded as “not stable in water”.
